Assay results published in PubChem BioAssay AID328 (DTP/NCI, 2004).
Where “and” joins values, the source holds several entries; their conditions need not be identical. Equal entries are not always repeated. Toxic doses and inconclusive results are not listed.

System: BDF1 mice, P388 leukemia ip, median survival T/C
Assay: NCI In Vivo Anticancer Drug Screen. Data for tumor model P388 Leukemia (intraperitoneal) in B6D2F1 (BDF1) mice
Details: endpoint: median survival time, higher = longer survival
Method: The antitumor activity of compounds was measured in mice bearing transplantable tumors. Survival or tumor size were measured and the results are expressed as the measurement made in the treated group (T) divided by the measurement made in the vehicle treated control group (C). The tumor model used in this assay is P388 Leukemia (intraperitoneal) in B6D2F1 (BDF1) mice

[1] = dose: 50.0 mg/kg/injection, schedule: Q01DX009 (ip), vehicle: saline with Tween-80
[2] = dose: 100.0 mg/kg/injection, schedule: Q01DX009 (ip), vehicle: saline with Tween-80
[3] = dose: 200.0 mg/kg/injection, schedule: Q01DX009 (ip), vehicle: saline with Tween-80
[4] = dose: 12.5 mg/kg/injection, schedule: Q01DX009 (ip), vehicle: saline
[5] = dose: 50.0 mg/kg/injection, schedule: Q04DX003 (ip), vehicle: saline
[6] = dose: 100.0 mg/kg/injection, schedule: Q04DX003 (ip), vehicle: saline
[7] = dose: 200.0 mg/kg/injection, schedule: Q04DX003 (ip), vehicle: saline
[8] = dose: 400.0 mg/kg/injection, schedule: Q04DX003 (ip), vehicle: saline
[9] = dose: 25.0 mg/kg/injection, schedule: Q04DX003 (ip), vehicle: Klucel (hydroxypropylcellulose) (HPC)
[10] = dose: 50.0 mg/kg/injection, schedule: Q04DX003 (ip), vehicle: Klucel (hydroxypropylcellulose) (HPC)
[11] = dose: 100.0 mg/kg/injection, schedule: Q04DX003 (ip), vehicle: Klucel (hydroxypropylcellulose) (HPC)
[12] = dose: 25.0 mg/kg/injection, schedule: Q01DX009 (ip), vehicle: Klucel (hydroxypropylcellulose) (HPC)
[13] = dose: 50.0 mg/kg/injection, schedule: Q01DX009 (ip), vehicle: Klucel (hydroxypropylcellulose) (HPC)
[14] = dose: 50.0 mg/kg/injection, schedule: Q04DX003 (ip), vehicle: saline with Tween-80
[15] = dose: 200.0 mg/kg/injection, schedule: Q04DX003 (ip), vehicle: saline with Tween-80
[16] = dose: 6.25 mg/kg/injection, schedule: Q01DX009 (ip), vehicle: saline with Tween-80
[17] = dose: 12.5 mg/kg/injection, schedule: Q01DX009 (ip), vehicle: saline with Tween-80
[18] = dose: 25.0 mg/kg/injection, schedule: Q01DX009 (ip), vehicle: saline with Tween-80
[19] = dose: 100.0 mg/kg/injection, schedule: Q04DX003 (ip), vehicle: saline with Tween-80

In the case of `CCC1CN2CCc3cc(O)c(O)cc3C2CC1CC1NCCc2c1[nH]c1ccc(O)cc21` (centres undefined), the T/C (dose: 1.0 mg/kg/injection, schedule: Q01DX009 (ip), vehicle: Klucel (hydroxypropylcellulose) (HPC)) is reported as 161 % of control and the T/C (dose: 2.0 mg/kg/injection, schedule: Q01DX009 (ip), vehicle: Klucel (hydroxypropylcellulose) (HPC)) is reported as 163 % of control.
With `O=C(Nc1ncccn1)C12CC3CC(CC(C3)C1)C2` the T/C [1] was 88 % of control, the T/C [2] was 96 % of control and the T/C [3] was 93 % of control.
In the case of `C=CCC#N`, the T/C [4] is reported as 95 % of control, the T/C (dose: 25.0 mg/kg/injection, schedule: Q01DX009 (ip), vehicle: saline) is reported as 95 % of control and the T/C (dose: 25.0 mg/kg/injection, schedule: Q04DX003 (ip), vehicle: saline) is reported as 100 % of control. For the same compound, the T/C [5] was 95 % of control.
With `O=C1CCN2C=CC=CC2=N1` the T/C [6] was 104 % of control, the T/C [7] was 100 % of control and the T/C [8] was 95 % of control.
`CN(C)C(=S)SC(=S)N(C)C` was tested, and the T/C [9] was 100 % of control, the T/C [10] was 95 % of control and the T/C (dose: 100.0 mg/kg/injection, schedule: Q01DX001 (ip), vehicle: Klucel (hydroxypropylcellulose) (HPC)) was 100 % of control and 104 % of control. For the same compound, the T/C [11] was 109 % of control, the T/C (dose: 200.0 mg/kg/injection, schedule: Q01DX001 (ip), vehicle: Klucel (hydroxypropylcellulose) (HPC)) was 100 % of control and the T/C (dose: 400.0 mg/kg/injection, schedule: Q01DX001 (ip), vehicle: Klucel (hydroxypropylcellulose) (HPC)) was 104 % of control and 108 % of control.
For `O=C(CCCN1CCC(O)(c2cccc(C(F)(F)F)c2)CC1)c1ccc(F)cc1`, the T/C (dose: 12.5 mg/kg/injection, schedule: Q01DX009 (ip), vehicle: Klucel (hydroxypropylcellulose) (HPC)) was 120 % of control, the T/C (dose: 12.5 mg/kg/injection, schedule: Q04DX003 (ip), vehicle: Klucel (hydroxypropylcellulose) (HPC)) was 112 % of control and the T/C (dose: 18.75 mg/kg/injection, schedule: Q04DX003 (ip), vehicle: Klucel (hydroxypropylcellulose) (HPC)) was 96 % of control. For the same compound, the T/C [12] was 114 % of control, the T/C [9] was 122 % of control and the T/C [13] was 117 % of control. For the same compound, the T/C [10] was 121 % of control and the T/C (dose: 150.0 mg/kg/injection, schedule: Q04DX003 (ip), vehicle: Klucel (hydroxypropylcellulose) (HPC)) was 96 % of control.
In the case of `O=[N+]([O-])c1ccc(S(=O)(=O)c2ccc([N+](=O)[O-])cc2)cc1`, the T/C [14] is reported as 101 % of control, the T/C [15] is reported as 110 % of control and the T/C (dose: 400.0 mg/kg/injection, schedule: Q04DX003 (ip), vehicle: saline with Tween-80) is reported as 93 % of control.
For `Cc1c(N=Cc2ccccc2)c(=O)n(-c2ccccc2)n1C`, the T/C (dose: 100.0 mg/kg/injection, schedule: Q01DX009 (ip), vehicle: gum acacia) was 110 % of control, the T/C (dose: 100.0 mg/kg/injection, schedule: Q04DX003 (ip), vehicle: gum acacia) was 88 % of control and the T/C (dose: 200.0 mg/kg/injection, schedule: Q01DX009 (ip), vehicle: gum acacia) was 103 % of control. The T/C (dose: 200.0 mg/kg/injection, schedule: Q04DX003 (ip), vehicle: gum acacia) was 100 % of control, the T/C (dose: 400.0 mg/kg/injection, schedule: Q01DX009 (ip), vehicle: gum acacia) was 92 % of control and the T/C (dose: 400.0 mg/kg/injection, schedule: Q04DX003 (ip), vehicle: gum acacia) was 92 % of control.
With `Cc1nc(N)cc(=O)[nH]1` the T/C (dose: 100.0 mg/kg/injection, schedule: Q01DX009 (ip), vehicle: water) was 105 % of control, the T/C (dose: 200.0 mg/kg/injection, schedule: Q01DX009 (ip), vehicle: water) was 110 % of control and the T/C (dose: 400.0 mg/kg/injection, schedule: Q01DX009 (ip), vehicle: water) was 95 % of control.
`CCC(O)(c1ccc(OC)cc1)C(c1ccccc1)c1ccccn1` (centres undefined) was tested, and the T/C (dose: 31.25 mg/kg/injection, schedule: Q01DX009 (ip), vehicle: saline with Tween-80) was 103 % of control, the T/C (dose: 62.5 mg/kg/injection, schedule: Q01DX009 (ip), vehicle: saline with Tween-80) was 103 % of control and the T/C (dose: 125.0 mg/kg/injection, schedule: Q01DX009 (ip), vehicle: saline with Tween-80) was 100 % of control.
In the case of `CC(=O)[O][Hg][c]1c(N)c(C)cc(C)c1F`, the T/C (dose: 0.78 mg/kg/injection, schedule: Q01DX009 (ip), vehicle: saline) is reported as 93 % of control, the T/C (dose: 1.56 mg/kg/injection, schedule: Q01DX009 (ip), vehicle: saline) is reported as 95 % of control and the T/C (dose: 3.12 mg/kg/injection, schedule: Q01DX009 (ip), vehicle: saline) is reported as 93 % of control. The T/C (dose: 6.25 mg/kg/injection, schedule: Q01DX009 (ip), vehicle: saline) was 95 % of control and the T/C [4] was 95 % of control.
For `O=C(O)COCC(F)(F)C(F)(F)C(F)(F)COCC(=O)O`, the T/C (dose: 50.0 mg/kg/injection, schedule: Q01DX009 (ip), vehicle: saline) was 90 % of control, the T/C (dose: 100.0 mg/kg/injection, schedule: Q01DX009 (ip), vehicle: saline) was 110 % of control and the T/C [6] was 100 % of control. The T/C (dose: 200.0 mg/kg/injection, schedule: Q01DX009 (ip), vehicle: saline) was 110 % of control and the T/C [7] was 122 % of control.
With `COC(=O)C(Cc1ccccc1)NS(=O)(=O)c1ccc(C)cc1` (centres undefined) the T/C (dose: 12.5 mg/kg/injection, schedule: Q01DX005 (ip), vehicle: saline with Tween-80) was 92 % of control, the T/C (dose: 25.0 mg/kg/injection, schedule: Q01DX005 (ip), vehicle: saline with Tween-80) was 90 % of control and the T/C (dose: 50.0 mg/kg/injection, schedule: Q01DX005 (ip), vehicle: saline with Tween-80) was 87 % of control and 92 % of control. For the same compound, the T/C (dose: 200.0 mg/kg/injection, schedule: Q01DX005 (ip), vehicle: saline with Tween-80) was 111 % of control.
In the case of `Nc1ccc(OCc2ccccc2)cc1`, the T/C [16] is reported as 90 % of control, the T/C [17] is reported as 100 % of control and the T/C [18] is reported as 100 % of control. The T/C (dose: 25.0 mg/kg/injection, schedule: Q04DX003 (ip), vehicle: saline with Tween-80) was 95 % of control, the T/C [14] was 100 % of control and the T/C [19] was 100 % of control.
`CCC1CCCC1O` (centres undefined) was tested, and the T/C [1] was 101 % of control, the T/C [2] was 102 % of control and the T/C [3] was 100 % of control.
`CCOC(=O)c1c(NC(=O)CCC(=O)Nc2sc(C)c(C)c2C(=O)OCC)sc(C)c1C` was tested, and the T/C [18] was 109 % of control, the T/C [1] was 90 % of control and the T/C [5] was 87 % of control. The T/C [2] was 90 % of control and the T/C [8] was 91 % of control.
In the case of `C[As](C)(=S)[As](C)(C)=S`, the T/C [16] is reported as 116 % of control, the T/C [17] is reported as 114 % of control and the T/C [18] is reported as 119 % of control.
`CCOC(C)C(/C=N/NC(N)=S)=NNC(N)=S` (centres undefined) was tested, and the T/C [12] was 110 % of control, the T/C [13] was 115 % of control and the T/C [1] was 107 % of control. For the same compound, the T/C [2] was 96 % of control, the T/C [11] was 109 % of control and the T/C [19] was 86 % of control. The T/C (dose: 150.0 mg/kg/injection, schedule: Q01DX009 (ip), vehicle: Klucel (hydroxypropylcellulose) (HPC)) was 110 % of control, the T/C (dose: 200.0 mg/kg/injection, schedule: Q01DX009 (ip), vehicle: Klucel (hydroxypropylcellulose) (HPC)) was 122 % of control and the T/C (dose: 200.0 mg/kg/injection, schedule: Q04DX003 (ip), vehicle: Klucel (hydroxypropylcellulose) (HPC)) was 100 % of control. For the same compound, the T/C [15] was 91 % of control and the T/C (dose: 400.0 mg/kg/injection, schedule: Q04DX003 (ip), vehicle: Klucel (hydroxypropylcellulose) (HPC)) was 104 % of control.
With `Clc1ccc(C2CC3CCCCN3O2)cc1` (centres undefined) the T/C [1] was 90 % of control, the T/C [2] was 99 % of control and the T/C [3] was 90 % of control.
In the case of `Nc1nc2ncc(CN(CCS(=O)(=O)F)c3ccc(C(=O)NC(CCC(=O)O)C(=O)O)cc3)nc2c(=O)[nH]1` (centres undefined), the T/C (dose: 50.0 mg/kg/injection, schedule: Q04DX003 (ip), vehicle: sodium bicarbonate) is reported as 105 % of control, the T/C (dose: 100.0 mg/kg/injection, schedule: Q04DX003 (ip), vehicle: sodium bicarbonate) is reported as 99 % of control and the T/C (dose: 200.0 mg/kg/injection, schedule: Q04DX003 (ip), vehicle: sodium bicarbonate) is reported as 94 % of control.
In the case of `CC(=O)Nc1ccc(S(=O)(=O)Nc2ccc([N+](=O)[O-])cc2)cc1`, the T/C [18] is reported as 104 % of control, the T/C (dose: 50.0 mg/kg/injection, schedule: Q01DX009 (ip), vehicle: water) is reported as 95 % of control and the T/C [2] is reported as 97 % of control. For the same compound, the T/C [3] was 97 % of control and the T/C (dose: 400.0 mg/kg/injection, schedule: Q01DX009 (ip), vehicle: saline with Tween-80) was 106 % of control.
